Laboratory results from US9980943B2, “Methods of treating muscular dystrophy” (BOARD OF REGENTS OF THE NEVADA SYSTEM OF HIGHER EDUCATION, …, priority 2013, dated 2018).

Experiments:
Assay type in all cases: cell-based, mouse
[1] = system: α7 integrin (LacZ reporter in α7βgal+/− myoblasts); experiment: Myoblast α7+/LacZ integrin FDG assay (Burkin assay in myoblasts, 96-well); conditions: α7+/LacZ myoblasts, 96-well
[2] = system: α7 integrin (LacZ reporter in α7+/LacZ myotubes); experiment: Myotube α7 integrin FDG assay (Burkin assay in myotubes, 96-well); conditions: myotubes
[3] = system: β-galactosidase in CMV-LacZ C2C12 myotubes; experiment: CMV-LacZ secondary screen in C2C12 myotubes (β-Gal stabilizing assay); conditions: for CMV-LACZ in Myotubes, signal relative to DMSO: C2C12 CMV-LacZ myotubes, fold relative to DMSO; for CMV-LACZ in Myotubes (β-galactosidase activity relative to DMSO): CMV-LacZ C2C12 myotubes, 96-well format
Method in brief: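 Stable CMV-LacZ C2C12 clone; six-point curve 0.5–40 μM; duplicates.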

SMILES	Burkin Assay in Myoblasts, signal relative to DMSO ([1]; 0.5 uM)	Burkin Assay in Myoblasts, signal relative to DMSO ([1]; 1 uM)	Burkin Assay in Myoblasts, signal relative to DMSO ([1]; 5 uM)	Burkin Assay in Myoblasts, signal relative to DMSO ([1]; 10 uM)	Burkin Assay in Myoblasts, signal relative to DMSO ([1]; 20 uM)	Burkin Assay in Myoblasts, signal relative to DMSO ([1]; 40 uM)	Burkin Assay in Myotubes, α7 integrin LacZ reporter signal relative to DMSO ([2]; 0.5 uM)	Burkin Assay in Myotubes, α7 integrin LacZ reporter signal relative to DMSO ([2]; 1 uM)	Burkin Assay in Myotubes, α7 integrin LacZ reporter signal relative to DMSO ([2]; 5 uM)	Burkin Assay in Myotubes, α7 integrin LacZ reporter signal relative to DMSO ([2]; 10 uM)	Burkin Assay in Myotubes, α7 integrin LacZ reporter signal relative to DMSO ([2]; 20 uM)	Burkin Assay in Myotubes, α7 integrin LacZ reporter signal relative to DMSO ([2]; 40 uM)	CMV-LACZ in Myotubes, signal relative to DMSO ([3]; 5 uM)	CMV-LACZ in Myotubes, signal relative to DMSO ([3]; 10 uM)	CMV-LACZ in Myotubes, signal relative to DMSO ([3]; 20 uM)	CMV-LACZ in Myotubes, signal relative to DMSO ([3]; 40 uM)	Burkin Assay in Myoblasts, value relative to DMSO ([1]; 0.5 uM)	Burkin Assay in Myoblasts, value relative to DMSO ([1]; 1 uM)	Burkin Assay in Myoblasts, value relative to DMSO ([1]; 5 uM)	Burkin Assay in Myoblasts, value relative to DMSO ([1]; 10 uM)	also measured
CC(OC(=O)c1cc(-c2cccnc2)nc2ccccc12)C(=O)Nc1ccc2ccccc2c1 (stereo not shown) [MLS000389484-01]	0.7848	0.7672	0.8524	0.8706	0.7331	0.6132	0.9292	0.7793	0.8638	0.6433	0.867	0.6946	0.8524	0.8387	1.116	2.781					
Cc1ccc(-c2nc(C)sc2CC(=O)OCC(=O)Nc2c(F)cccc2F)cc1 [MLS000388722-01]													0.9569	1.067	1.085	0.8668	0.93	1.1187	1.1052	1.1175	Burkin Assay in Myoblasts, value relative to DMSO ([1]; 20 uM): 0.9101; Burkin Assay in Myoblasts, value relative to DMSO ([1]; 40 uM): 0.9407; Burkin Assay in Myotubes (signal relative to DMSO) ([2]; 0.5 uM): 0.9225; Burkin Assay in Myotubes (signal relative to DMSO) ([2]; 1 uM): 0.9369; Burkin Assay in Myotubes (signal relative to DMSO) ([2]; 5 uM): 1.032; Burkin Assay in Myotubes (signal relative to DMSO) ([2]; 10 uM): 1.042; Burkin Assay in Myotubes (signal relative to DMSO) ([2]; 20 uM): 0.8001; Burkin Assay in Myotubes (signal relative to DMSO) ([2]; 40 uM): 0.9404
Cc1ccc(NC(=O)CC2COc3ccccc3O2)cc1 (stereo not shown) [MLS000534926-01]																	1.522	0.9473	0.8586	0.8832	Burkin Assay in Myoblasts, value relative to DMSO ([1]; 20 uM): 0.5996; Burkin Assay in Myoblasts, value relative to DMSO ([1]; 40 uM): 0.4222; Burkin Assay in Myotubes (signal relative to DMSO) ([2]; 0.5 uM): 1.026; Burkin Assay in Myotubes (signal relative to DMSO) ([2]; 1 uM): 0.9445; Burkin Assay in Myotubes (signal relative to DMSO) ([2]; 5 uM): 1.006; Burkin Assay in Myotubes (signal relative to DMSO) ([2]; 10 uM): 0.9622; Burkin Assay in Myotubes (signal relative to DMSO) ([2]; 20 uM): 1.338; Burkin Assay in Myotubes (signal relative to DMSO) ([2]; 40 uM): 0.8565; CMV-LACZ in Myotubes (β-galactosidase activity relative to DMSO) ([3]; 5 uM): 0.9724; CMV-LACZ in Myotubes (β-galactosidase activity relative to DMSO) ([3]; 10 uM): 0.969; CMV-LACZ in Myotubes (β-galactosidase activity relative to DMSO) ([3]; 20 uM): 0.9547; CMV-LACZ in Myotubes (β-galactosidase activity relative to DMSO) ([3]; 40 uM): 0.844
Cc1cc(C(=O)Nc2cccc3ccccc23)c(C)o1 [MLS001219345-01]	0.3027	1.119	1.046	1.014	0.9807	0.9227	0.9416	0.9889	1.078	1.0424	0.7146	0.9232	1.188	0.8631	1.0075	1.0255					
Cn1c(=O)c2c(nc(Sc3ncnn3CC(=O)NC3CCCCC3)n2C)n(C)c1=O [MLS000663651-01]	1.143	1.059	0.9834	0.9551	0.9504	1.048	0.946	0.9099	1.106	1.007	1.017	0.9648	0.9636	0.9788	0.949	0.861					
O=C(Nc1ccc(S(=O)(=O)Nc2nccs2)cc1)c1ccccc1OC(F)F [MLS002164687-01]																					fold induction at 0.5 µM ([1]; Mus musculus, Myoblast, 48 h, 0.5 uM, read-out: Burkin Assay in Myoblasts, value relative to DMSO): 0.775; fold induction at 1 µM ([1]; Mus musculus, Myoblast, 48 h, 1 uM, read-out: Burkin Assay in Myoblasts, value relative to DMSO): 0.819; fold induction at 5 µM ([1]; Mus musculus, Myoblast, 48 h, 5 uM, read-out: Burkin Assay in Myoblasts, value relative to DMSO): 0.695; fold induction at 10 µM ([1]; Mus musculus, Myoblast, 48 h, 10 uM, read-out: Burkin Assay in Myoblasts, value relative to DMSO): 0.849; fold induction at 20 µM ([1]; Mus musculus, Myoblast, 48 h, 20 uM, read-out: Burkin Assay in Myoblasts, value relative to DMSO): 0.838; fold induction at 40 µM ([1]; Mus musculus, Myoblast, 48 h, 40 uM, read-out: Burkin Assay in Myoblasts, value relative to DMSO): 0.819; fold induction at 0.5 µM ([2]; Mus musculus, Myotube, 0.5 uM, read-out: Burkin Assay in Myotubes (signal relative to DMSO)): 0.853; fold induction at 1 µM ([2]; Mus musculus, Myotube, 1 uM, read-out: Burkin Assay in Myotubes (signal relative to DMSO)): 1; fold induction at 5 µM ([2]; Mus musculus, Myotube, 5 uM, read-out: Burkin Assay in Myotubes (signal relative to DMSO)): 1.23; fold induction at 10 µM ([2]; Mus musculus, Myotube, 10 uM, read-out: Burkin Assay in Myotubes (signal relative to DMSO)): 1.37; fold induction at 20 µM ([2]; Mus musculus, Myotube, 20 uM, read-out: Burkin Assay in Myotubes (signal relative to DMSO)): 1.02; fold induction at 40 µM ([2]; Mus musculus, Myotube, 40 uM, read-out: Burkin Assay in Myotubes (signal relative to DMSO)): 1.06; CMV-LACZ in Myotubes (β-galactosidase activity relative to DMSO) ([3]; 5 uM): 0.7625; CMV-LACZ in Myotubes (β-galactosidase activity relative to DMSO) ([3]; 10 uM): 0.922; CMV-LACZ in Myotubes (β-galactosidase activity relative to DMSO) ([3]; 20 uM): 0.968; CMV-LACZ in Myotubes (β-galactosidase activity relative to DMSO) ([3]; 40 uM): 1.113
NC(=O)c1nsc(C(=O)N(c2ccccc2)C(C(=O)NCc2ccc(F)cc2)c2ccc(O)cc2)c1N (stereo not shown) [MLS001219621-01]																	0.8642	0.8063	0.7249	0.7542	Burkin Assay in Myoblasts, value relative to DMSO ([1]; 20 uM): 0.7884; Burkin Assay in Myoblasts, value relative to DMSO ([1]; 40 uM): 0.5423; Burkin Assay in Myotubes (signal relative to DMSO) ([2]; 0.5 uM): 0.9394; Burkin Assay in Myotubes (signal relative to DMSO) ([2]; 1 uM): 0.8603; Burkin Assay in Myotubes (signal relative to DMSO) ([2]; 5 uM): 0.8883; Burkin Assay in Myotubes (signal relative to DMSO) ([2]; 10 uM): 0.8616; Burkin Assay in Myotubes (signal relative to DMSO) ([2]; 20 uM): 0.648; Burkin Assay in Myotubes (signal relative to DMSO) ([2]; 40 uM): 0.4537; CMV-LACZ in Myotubes (β-galactosidase activity relative to DMSO) ([3]; 5 uM): 0.9491; CMV-LACZ in Myotubes (β-galactosidase activity relative to DMSO) ([3]; 10 uM): 1.063; CMV-LACZ in Myotubes (β-galactosidase activity relative to DMSO) ([3]; 20 uM): 1.132; CMV-LACZ in Myotubes (β-galactosidase activity relative to DMSO) ([3]; 40 uM): 1.29
